Several values for one entry are separate records, joined by “and”; a condition that tells them apart may be missing. Equal entries are not always repeated. Where two headings read alike, the source gives them in different places.
Columns and labels:
[1] = test system: Enterococcus faecalis EFS.312, Daptomycin resistant mutant (EFA); format: cell-based; details: MHBc with 50 mg/L calcium, 18-20 hours at 37° C.
Experimental: (§1) Compounds according to Formula I were tested for antimicrobial activity against a panel of organisms. Aerobic organisms, Staphylococcus aureus, Enterococcus faecalis and E. faecium, were tested by broth microdilution according to Clinical and Laboratory Standards Institute (CLSI) document M7-A7 (Clinical and Laboratory Standards Institute. Methods for Dilution Antimicrobial Susceptibility Tests for Bacteria that Grow Aerobically; Approved Standard—Seventh Edition. CLSI document M7-A7 [ISBN 1-56238-587-9]. Clinical and Laboratory Standards Institute, 940 West Valley Road, Suite 1400, Wayne, Pa. 19087-1898 USA, 2006) with modifications as described below. Mueller Hinton Broth (MHBc) was supplemented with 50 mg/L calcium (equivalent to human physiological levels of calcium) and assay plates were incubated 18-20 hours at 37° C. with aeration (200 rpm).
(§2) In all cases the final concentration of dimethyl sulfoxide incubated with cells is less than or equal to 1%. For minimum inhibitory concentration (MIC) calculations, 2-fold dilutions of compounds were added to wells of a microtiter plate containing 5×10^5 bacteria in a final volume of 100 μL of media. Following incubation, (18-20 hours at 37° C. with aeration at 200 rpm) growth was confirmed visually by placing plates over a viewing apparatus (stand with a mirror underneath) and then the optical density (OD600) was measured using a SpectraMax 340PC^384 plate reader. Growth was defined as turbidity that could be detected with the naked eye or achieving minimum OD600of 0.1. MIC values (in μg/mL) were defined as the lowest concentration producing no visible turbidity.

[2] = test system: Enterococcus faecium EFM.14 (ATCC 6569); format: cell-based
Experimental: as §1, §2

[3] = test system: Enterococcus faecium EFM.384, Daptomycin resistant mutant (14-A); format: cell-based; details: MHBc with 50 mg/L calcium, 18-20 hours at 37° C.
Experimental: as §1, §2

[4] = test system: Staphylococcus aureus SAU.278, Daptomycin resistant mutant (D10); format: cell-based; details: MHBc with 50 mg/L calcium, 18-20 hours at 37° C.
Experimental: as §1, §2

[5] = test system: Staphylococcus aureus SAU.399 (ATCC 43300), Methicillin and Oxacillin Resistant; format: cell-based; details: ATCC 43300
Experimental: as §1, §2

[6] = test system: Enterococcus faecalis EFS.201 (ATCC 49452); format: cell-based
Experimental: as §1, §2

[7] = MHBc with 50 mg/L calcium, 18-20 hours at 37° C.

Row | Compound | Efs312 MIC [1] | Efm14 MIC ([2]; ATCC 6569) | Efm384 MIC [3] | Sa278 MIC [4] | Sa399 MIC [5] | C. diff MIC90 (Clostridium difficile) | Efs201 MIC ([6]; ATCC 49452) | Efs201 MIC [6, 7] | Efm14 MIC [2, 7]
1 | CCCCCCC1CCC(C(=O)N[C@@H](Cc2c[nH]c3ccccc23)C(=O)N[C@H](CC(N)=O)C(=O)N[C@@H](CC(=O)O)C(=O)N[C@@H]2C(=O)NCC(=O)N[C@@H](CCCN)C(=O)N[C@@H](CC(=O)O)C(=O)N[C@H](C)C(=O)N[C@@H](CC(=O)O)C(=O)NCC(=O)N[C@H](CO)C(=O)N[C@@H]([C@H](C)CC(=O)O)C(=O)N[C@@H](CC(=O)c3ccccc3N)C(=O)O[C@@H]2C)CC1 (some centres unmarked) [Compound 18] | 32 µg/mL and 16 µg/mL | 2 µg/mL | 8 µg/mL | 4 µg/mL and 2 µg/mL | 1 µg/mL | 0.5 µg/mL | – | – | –
2 | CCCCCCCC1CCC(C(=O)N[C@@H](Cc2c[nH]c3ccccc23)C(=O)N[C@H](CC(N)=O)C(=O)N[C@@H](CC(=O)O)C(=O)N[C@@H]2C(=O)NCC(=O)N[C@@H](CCCN)C(=O)N[C@@H](CC(=O)O)C(=O)N[C@H](C)C(=O)N[C@@H](CC(=O)O)C(=O)NCC(=O)N[C@H](CO)C(=O)N[C@@H]([C@H](C)CC(=O)O)C(=O)N[C@@H](CC(=O)c3ccccc3N)C(=O)O[C@@H]2C)CC1 (some centres unmarked) [Compound 19] | – | – | – | – | – | 0.250 µg/mL | – | – | –
3 | CCCCCCOc1ccc(-c2csc(C(=O)N[C@@H](Cc3c[nH]c4ccccc34)C(=O)N[C@H](CC(N)=O)C(=O)N[C@@H](CC(=O)O)C(=O)N[C@@H]3C(=O)NCC(=O)N[C@@H](CCCN)C(=O)N[C@@H](CC(=O)O)C(=O)N[C@H](C)C(=O)N[C@@H](CC(=O)O)C(=O)NCC(=O)N[C@H](CO)C(=O)N[C@@H]([C@H](C)CC(=O)O)C(=O)N[C@@H](CC(=O)c4ccccc4N)C(=O)O[C@@H]3C)c2)cc1 [Compound 58, N-[4-(4-(hexyloxy)phenyl)thiophene-2-carbonyl]-L-tryptophyl-D-asparaginyl-L-α-aspartyl-L-threonylglycyl-L-ornithyl-L-α-aspartyl-D-alanyl-L-α-aspartylglycyl-D-seryl-(3R)-3-methyl-L-α-glutamyl-(αS)-α,2-diamino-γ-oxobenzenebutanoic acid (13→4)-lactone] | – | – | – | 0.5 µg/mL and 1 µg/mL | – | 4 µg/mL | – | – | –
4 | C[C@H](CC(=O)O)[C@@H]1NC(=O)[C@@H](CO)NC(=O)CNC(=O)[C@H](CC(=O)O)NC(=O)[C@@H](C)NC(=O)[C@H](CC(=O)O)NC(=O)[C@H](CCCN)NC(=O)CNC(=O)[C@@H](NC(=O)[C@H](CC(=O)O)NC(=O)[C@@H](CC(N)=O)NC(=O)[C@H](Cc2c[nH]c3ccccc23)NC(=O)CCCCCc2ccccc2)[C@@H](C)OC(=O)[C@H](CC(=O)c2ccccc2N)NC1=O [Compound 46] | >32 µg/mL | >32 µg/mL | >32 µg/mL | >32 µg/mL | – | 16 µg/mL | >32 µg/mL | – | –
5 | CCCCCCC(CCCC)C(=O)N[C@@H](Cc1c[nH]c2ccccc12)C(=O)N[C@H](CC(N)=O)C(=O)N[C@@H](CC(=O)O)C(=O)N[C@@H]1C(=O)NCC(=O)N[C@@H](CCCN)C(=O)N[C@@H](CC(=O)O)C(=O)N[C@H](C)C(=O)N[C@@H](CC(=O)O)C(=O)NCC(=O)N[C@H](CO)C(=O)N[C@@H]([C@H](C)CC(=O)O)C(=O)N[C@@H](CC(=O)c2ccccc2N)C(=O)O[C@@H]1C (some centres unmarked) [Compound 8] | >32 µg/mL | – | 32 µg/mL and >32 µg/mL | – | – | 8 µg/mL | – | – | –
6 | CCCCCCCC/C=C/CC(=O)N[C@@H](Cc1c[nH]c2ccccc12)C(=O)N[C@H](CC(N)=O)C(=O)N[C@@H](CC(=O)O)C(=O)N[C@@H]1C(=O)NCC(=O)N[C@@H](CCCN)C(=O)N[C@@H](CC(=O)O)C(=O)N[C@H](C)C(=O)N[C@@H](CC(=O)O)C(=O)NCC(=O)N[C@H](CO)C(=O)N[C@@H]([C@H](C)CC(=O)O)C(=O)N[C@@H](CC(=O)c2ccccc2N)C(=O)O[C@@H]1C [Compound 4] | 32 µg/mL and 16 µg/mL | – | 8 µg/mL and 4 µg/mL | – | – | – | – | – | –
7 | CC(C)c1ccc(CCCC(=O)N[C@@H](Cc2c[nH]c3ccccc23)C(=O)N[C@H](CC(N)=O)C(=O)N[C@@H](CC(=O)O)C(=O)N[C@@H]2C(=O)NCC(=O)N[C@@H](CCCN)C(=O)N[C@@H](CC(=O)O)C(=O)N[C@H](C)C(=O)N[C@@H](CC(=O)O)C(=O)NCC(=O)N[C@H](CO)C(=O)N[C@@H]([C@H](C)CC(=O)O)C(=O)N[C@@H](CC(=O)c3ccccc3N)C(=O)O[C@@H]2C)cc1 [Compound 30, N-[4-(4-isopropylphenyl)butanoyl]-L-tryptophyl-D-asparaginyl-L-α-aspartyl-L-threonylglycyl-L-ornithyl-L-α-aspartyl-D-alanyl-L-α-aspartylglycyl-D-seryl-(3R)-3-methyl-L-α-glutamyl-(αS)-α,2-diamino-γ-oxobenzenebutanoic acid (13→4)-lactone] | >32 µg/mL | – | >32 µg/mL | 32 µg/mL | – | 8 µg/mL | 8 µg/mL | – | –
8 | CCCCCCc1ccc(C(=O)N[C@@H](Cc2c[nH]c3ccccc23)C(=O)N[C@H](CC(N)=O)C(=O)N[C@@H](CC(=O)O)C(=O)N[C@@H]2C(=O)NCC(=O)N[C@@H](CCCN)C(=O)N[C@@H](CC(=O)O)C(=O)N[C@H](C)C(=O)N[C@@H](CC(=O)O)C(=O)NCC(=O)N[C@H](CO)C(=O)N[C@@H]([C@H](C)CC(=O)O)C(=O)N[C@@H](CC(=O)c3ccccc3N)C(=O)O[C@@H]2C)cc1 [Compound 32] | >32 µg/mL and 32 µg/mL | – | – | – | – | – | – | – | –
9 | CCCCCCSc1ccc(-c2csc(C(=O)N[C@@H](Cc3c[nH]c4ccccc34)C(=O)N[C@H](CC(N)=O)C(=O)N[C@@H](CC(=O)O)C(=O)N[C@@H]3C(=O)NCC(=O)N[C@@H](CCCN)C(=O)N[C@@H](CC(=O)O)C(=O)N[C@H](C)C(=O)N[C@@H](CC(=O)O)C(=O)NCC(=O)N[C@H](CO)C(=O)N[C@@H]([C@H](C)CC(=O)O)C(=O)N[C@@H](CC(=O)c4ccccc4N)C(=O)O[C@@H]3C)c2)cc1 [Compound 57] | – | – | – | 2 µg/mL and 4 µg/mL | – | 8 µg/mL | – | – | –
10 | CCCCCCOc1ccc(-c2ccc(C(=O)N[C@@H](Cc3c[nH]c4ccccc34)C(=O)N[C@H](CC(N)=O)C(=O)N[C@@H](CC(=O)O)C(=O)N[C@@H]3C(=O)NCC(=O)N[C@@H](CCCN)C(=O)N[C@@H](CC(=O)O)C(=O)N[C@H](C)C(=O)N[C@@H](CC(=O)O)C(=O)NCC(=O)N[C@H](CO)C(=O)N[C@@H]([C@H](C)CC(=O)O)C(=O)N[C@@H](CC(=O)c4ccccc4N)C(=O)O[C@@H]3C)cc2)cc1 [Compound 62] | 2 µg/mL and 4 µg/mL | – | 1 µg/mL | 0.5 µg/mL | – | 2 µg/mL | – | 0.25 µg/mL | 0.5 µg/mL
11 | CCCCCCC1CCC(c2ccc(C(=O)N[C@@H](Cc3c[nH]c4ccccc34)C(=O)N[C@H](CC(N)=O)C(=O)N[C@@H](CC(=O)O)C(=O)N[C@@H]3C(=O)NCC(=O)N[C@@H](CCCN)C(=O)N[C@@H](CC(=O)O)C(=O)N[C@H](C)C(=O)N[C@@H](CC(=O)O)C(=O)NCC(=O)N[C@H](CO)C(=O)N[C@@H]([C@H](C)CC(=O)O)C(=O)N[C@@H](CC(=O)c4ccccc4N)C(=O)O[C@@H]3C)cc2)CC1 (single isomer, unassigned) [54 isomer I] | – | – | – | – | – | 4 µg/mL | – | – | –

— patent US20150337013A1, “NOVEL ANTIBACTERIAL AGENTS FOR THE TREATMENT OF GRAM POSITIVE INFECTIONS” (priority 2008, published 2015)
